From publication PMC11882969 (Nature Communications, 2025) come the findings set out here.

Series [1] has as its target panel of 320 non-olfactory GPCRs (Homo sapiens, UniProt Q86SM8). The class given is cell-based.
Series [2] deals with panel of 320 non-olfactory GPCRs (Homo sapiens, UniProt Q9H228). It counts as cell-based.
For series [3], the target named is panel of 320 non-olfactory GPCRs (Homo sapiens, UniProt Q9H1C0). The class given is cell-based.
In series [4] the target is panel of 320 non-olfactory GPCRs (Homo sapiens, UniProt Q5NUL3). It counts as cell-based.
The target in series [5] is panel of 320 non-olfactory GPCRs (Homo sapiens, UniProt P21462). The class given is cell-based.
The target of series [6] is panel of 320 non-olfactory GPCRs (Homo sapiens, UniProt Q9NZH0). It counts as cell-based.
panel of 320 non-olfactory GPCRs (Homo sapiens, UniProt Q9NZH0), sequence (Q9NZH0 29-403): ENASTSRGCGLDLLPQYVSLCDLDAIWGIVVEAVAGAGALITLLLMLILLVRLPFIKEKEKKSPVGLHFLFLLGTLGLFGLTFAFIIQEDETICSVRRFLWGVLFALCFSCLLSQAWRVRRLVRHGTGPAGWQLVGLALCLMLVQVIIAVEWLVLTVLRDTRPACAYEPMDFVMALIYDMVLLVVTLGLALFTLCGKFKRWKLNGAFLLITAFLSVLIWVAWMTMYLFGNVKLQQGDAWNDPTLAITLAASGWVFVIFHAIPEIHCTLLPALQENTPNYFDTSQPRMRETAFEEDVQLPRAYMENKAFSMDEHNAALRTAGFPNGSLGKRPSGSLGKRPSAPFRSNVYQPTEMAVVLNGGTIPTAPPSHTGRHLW
Series [7] addresses panel of 320 non-olfactory GPCRs (Homo sapiens, UniProt P47872). It counts as cell-based.
Series [8] has as its target panel of 320 non-olfactory GPCRs (Homo sapiens, UniProt P08908). It counts as cell-based.
The target of series [9] is panel of 320 non-olfactory GPCRs (Homo sapiens, UniProt Q8NFJ5). It counts as cell-based.
panel of 320 non-olfactory GPCRs (Homo sapiens, UniProt Q8NFJ5), sequence (Q8NFJ5 whole entry): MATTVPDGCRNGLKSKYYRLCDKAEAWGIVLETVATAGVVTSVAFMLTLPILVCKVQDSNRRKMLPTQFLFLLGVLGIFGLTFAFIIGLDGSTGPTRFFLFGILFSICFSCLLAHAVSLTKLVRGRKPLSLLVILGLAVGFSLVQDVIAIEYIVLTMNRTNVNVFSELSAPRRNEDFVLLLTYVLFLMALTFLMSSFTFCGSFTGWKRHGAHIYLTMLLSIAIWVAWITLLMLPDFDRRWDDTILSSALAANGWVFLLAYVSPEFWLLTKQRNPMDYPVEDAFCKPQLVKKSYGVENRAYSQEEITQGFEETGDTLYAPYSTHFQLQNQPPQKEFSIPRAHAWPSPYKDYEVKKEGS
Series [10] concerns the target panel of 320 non-olfactory GPCRs (Homo sapiens, UniProt P51582). It counts as cell-based.
The target of series [11] is panel of 320 non-olfactory GPCRs (Homo sapiens, UniProt P30559). It counts as cell-based.
The target in series [12] is panel of 320 non-olfactory GPCRs (Homo sapiens, UniProt P28336). It counts as cell-based.
panel of 320 non-olfactory GPCRs (Homo sapiens, UniProt P28336), sequence (P28336 whole entry): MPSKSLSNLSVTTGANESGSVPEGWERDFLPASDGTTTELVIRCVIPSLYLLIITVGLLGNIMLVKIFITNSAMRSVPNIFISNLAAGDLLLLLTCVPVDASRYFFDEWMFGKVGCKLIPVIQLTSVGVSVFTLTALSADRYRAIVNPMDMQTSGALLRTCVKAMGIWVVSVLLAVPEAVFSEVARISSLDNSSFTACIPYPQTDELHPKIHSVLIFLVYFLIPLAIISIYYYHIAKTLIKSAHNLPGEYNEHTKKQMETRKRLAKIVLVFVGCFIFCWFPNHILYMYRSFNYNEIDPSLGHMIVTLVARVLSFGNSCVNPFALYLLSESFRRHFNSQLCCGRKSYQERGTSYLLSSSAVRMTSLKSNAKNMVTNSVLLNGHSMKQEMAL
In series [13] the target is panel of 320 non-olfactory GPCRs (Homo sapiens, UniProt Q8TDU6). It counts as cell-based.
The target in series [14] is panel of 320 non-olfactory GPCRs (Homo sapiens, UniProt Q8TDV5). It counts as cell-based.
Series [15] has as its target panel of 320 non-olfactory GPCRs (Homo sapiens, UniProt P25021). The class given is cell-based.
Series [16] has as its target panel of 320 non-olfactory GPCRs (Homo sapiens, UniProt Q9Y5N1). The class given is cell-based.
In series [17] the target is panel of 320 non-olfactory GPCRs (Homo sapiens, UniProt Q9HB89). The class given is cell-based.
Series [18] concerns the target panel of 320 non-olfactory GPCRs (Homo sapiens, UniProt P47211). The class given is cell-based.
In series [19] the target is panel of 320 non-olfactory GPCRs (Homo sapiens, UniProt P24530). The class given is cell-based.
A further series has as its system mice. The experiment in a line: Hargreaves radiant heat test. The class given is in vivo, mouse. The following applies: for Dose response, individual animals (FigS11a): test not printed on the sheet.
For series [20] the following is noted: mouse plasma, 1.0 µM.
Description: Compounds were added to one chamber and the same volume of PBS buffer pH 7.4 to the other chamber. A standard solution was created by mixing an aliquot of spiked plasma with blank buffer without dialysis. […] The stability samples were immediately diluted with acetonitrile and stored at 4 °C until LC-MS/MS analysis. All samples were diluted 5-fold with 90% acetonitrile with internal standard with subsequent plasma proteins sedimentation by centrifuging at 5,796 g for 5 min. Supernatants were analyzed using HPLC system coupled with tandem mass spectrometer. The percentage of plasma protein-bound compound, recovery and stability were calculated using following equations:7 ProteinBinding=1−arearatioinbuffer/arearatioinplasma×100 8 Recovery=arearatioinbuffer+arearatioinplasma/arearatioinstabilitysample×100 9 Stability=arearatioinrecoverysample/arearatioinstabilitysample×100
Series [21] concerns the target panel of 320 non-olfactory GPCRs (Homo sapiens, UniProt P32247). The class given is cell-based.
For series [22], the target named is panel of 320 non-olfactory GPCRs (Homo sapiens, UniProt Q96CH1). It counts as cell-based.
panel of 320 non-olfactory GPCRs (Homo sapiens, UniProt Q96CH1), sequence (Q96CH1 whole entry): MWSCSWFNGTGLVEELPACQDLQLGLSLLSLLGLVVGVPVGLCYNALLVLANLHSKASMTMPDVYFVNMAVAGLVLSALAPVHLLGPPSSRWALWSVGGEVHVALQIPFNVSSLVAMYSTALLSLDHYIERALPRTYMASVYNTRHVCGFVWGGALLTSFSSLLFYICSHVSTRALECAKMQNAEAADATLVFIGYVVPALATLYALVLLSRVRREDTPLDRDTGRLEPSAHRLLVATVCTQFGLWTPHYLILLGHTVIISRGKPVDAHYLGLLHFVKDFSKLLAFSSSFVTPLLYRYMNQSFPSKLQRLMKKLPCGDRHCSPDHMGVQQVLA
The target of series [23] is panel of 320 non-olfactory GPCRs (Homo sapiens, UniProt Q9H244). The class given is cell-based.
In series [24] the target is panel of 320 non-olfactory GPCRs (Homo sapiens, UniProt P29371). It counts as cell-based.
Series [25] deals with panel of 320 non-olfactory GPCRs (Homo sapiens, UniProt P34998). The class given is cell-based.
Series [26] concerns the target panel of 320 non-olfactory GPCRs (Homo sapiens, UniProt Q8WXD0). The class given is cell-based.
In series [27] the target is panel of 320 non-olfactory GPCRs (Homo sapiens, UniProt P22888). It counts as cell-based.
The target of series [28] is panel of 320 non-olfactory GPCRs (Homo sapiens, UniProt P25100). It counts as cell-based.
panel of 320 non-olfactory GPCRs (Homo sapiens, UniProt P25100), sequence (P25100 whole entry): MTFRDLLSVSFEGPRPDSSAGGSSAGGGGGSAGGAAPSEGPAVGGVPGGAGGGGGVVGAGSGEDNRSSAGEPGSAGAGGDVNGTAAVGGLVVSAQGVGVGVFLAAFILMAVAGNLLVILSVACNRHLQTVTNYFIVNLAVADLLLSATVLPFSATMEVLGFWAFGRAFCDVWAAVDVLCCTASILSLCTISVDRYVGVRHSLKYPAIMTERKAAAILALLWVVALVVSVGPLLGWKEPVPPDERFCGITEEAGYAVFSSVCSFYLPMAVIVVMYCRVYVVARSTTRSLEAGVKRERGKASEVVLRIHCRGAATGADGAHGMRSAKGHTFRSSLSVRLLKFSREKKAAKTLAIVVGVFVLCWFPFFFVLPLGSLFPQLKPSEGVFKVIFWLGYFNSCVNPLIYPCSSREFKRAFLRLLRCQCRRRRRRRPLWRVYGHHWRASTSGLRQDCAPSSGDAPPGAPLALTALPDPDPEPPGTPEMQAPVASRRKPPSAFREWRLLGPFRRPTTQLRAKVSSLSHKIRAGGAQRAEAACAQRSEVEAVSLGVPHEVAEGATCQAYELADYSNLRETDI
The target of series [29] is panel of 320 non-olfactory GPCRs (Homo sapiens, UniProt P07550). The class given is cell-based.
Another series has as its target hCB1 (Homo sapiens, UniProt P21554). Description: DiscoverX PathHunter β-arrestin-2 recruitment.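 Further: CHO-K1 cells expressing hCB1, agonist mode, compound exposure with 1% vehicle, chemiluminescence read-out of the β-arrestin-2 recruitment signal.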 It counts as cell-based. A general note: Arrestin recruitment assays detect the binding of arrestin to an activated receptor.
Another series has as its target hCB2 (Homo sapiens, UniProt P34972). The experiment in a line: Cerep HTRF cAMP inhibition assay, hCB2 CHO-K1.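 On all read-outs here: compounds incubated 30 min at 37 °C with hCB2 CHO-K1 cells, cAMP detected by HTRF, HBSS as basal and reference agonist as stimulated control, run in triplicate.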 The arrangement: host or cells: HEK293SL cells, transient PEI transfection. It counts as cell-based. The following applies: for functional response, concentration-response point (FigS7d): replicate columns. In general terms: TR-FRET usually uses a lanthanide donor and a delayed reading to cut background.

Where “and” joins values, the source holds several entries; their conditions need not be identical. Identical values can stand only once.

panel of 320 non-olfactory GPCRs (Homo sapiens, UniProt Q9H228), sequence (Q9H228 whole entry): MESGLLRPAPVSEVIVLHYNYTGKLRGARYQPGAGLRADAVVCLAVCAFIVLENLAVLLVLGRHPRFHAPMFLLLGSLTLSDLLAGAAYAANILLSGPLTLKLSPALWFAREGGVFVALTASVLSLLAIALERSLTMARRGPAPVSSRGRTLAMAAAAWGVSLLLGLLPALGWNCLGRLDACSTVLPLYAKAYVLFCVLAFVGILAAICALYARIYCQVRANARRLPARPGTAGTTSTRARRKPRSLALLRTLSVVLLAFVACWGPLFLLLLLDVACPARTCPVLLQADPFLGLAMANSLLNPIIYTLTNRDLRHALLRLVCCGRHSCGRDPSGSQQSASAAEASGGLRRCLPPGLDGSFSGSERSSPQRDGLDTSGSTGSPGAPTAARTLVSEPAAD
panel of 320 non-olfactory GPCRs (Homo sapiens, UniProt P47211), sequence (P47211 whole entry): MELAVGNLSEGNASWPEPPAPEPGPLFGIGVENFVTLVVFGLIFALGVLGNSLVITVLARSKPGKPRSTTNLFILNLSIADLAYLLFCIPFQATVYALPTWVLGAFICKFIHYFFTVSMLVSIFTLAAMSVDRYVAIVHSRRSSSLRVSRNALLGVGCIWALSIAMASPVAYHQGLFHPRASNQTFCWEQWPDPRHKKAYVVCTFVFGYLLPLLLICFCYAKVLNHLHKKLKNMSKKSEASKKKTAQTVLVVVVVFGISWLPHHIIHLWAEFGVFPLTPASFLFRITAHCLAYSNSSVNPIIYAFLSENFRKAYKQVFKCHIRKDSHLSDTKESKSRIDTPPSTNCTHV
panel of 320 non-olfactory GPCRs (Homo sapiens, UniProt Q8WXD0), sequence (Q8WXD0 whole entry): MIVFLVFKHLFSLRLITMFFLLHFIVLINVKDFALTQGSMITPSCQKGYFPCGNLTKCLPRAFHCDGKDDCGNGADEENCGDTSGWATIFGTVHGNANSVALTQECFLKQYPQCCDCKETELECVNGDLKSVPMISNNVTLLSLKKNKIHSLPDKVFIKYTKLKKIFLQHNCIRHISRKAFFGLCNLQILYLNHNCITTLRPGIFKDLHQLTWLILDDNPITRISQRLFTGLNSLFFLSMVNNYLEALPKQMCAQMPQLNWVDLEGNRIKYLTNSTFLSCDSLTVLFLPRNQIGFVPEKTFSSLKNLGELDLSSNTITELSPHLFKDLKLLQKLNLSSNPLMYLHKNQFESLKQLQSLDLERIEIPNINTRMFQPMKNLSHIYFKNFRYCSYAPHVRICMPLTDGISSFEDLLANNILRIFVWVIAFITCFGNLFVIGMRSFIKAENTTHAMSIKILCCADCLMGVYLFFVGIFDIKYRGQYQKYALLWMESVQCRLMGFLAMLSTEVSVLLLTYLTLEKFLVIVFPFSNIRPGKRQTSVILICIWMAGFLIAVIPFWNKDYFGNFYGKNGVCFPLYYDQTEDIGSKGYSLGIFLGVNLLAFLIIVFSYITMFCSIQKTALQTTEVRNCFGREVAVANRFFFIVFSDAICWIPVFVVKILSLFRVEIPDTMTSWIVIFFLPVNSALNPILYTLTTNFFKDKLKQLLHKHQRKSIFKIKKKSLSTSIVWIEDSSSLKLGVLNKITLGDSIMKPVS
panel of 320 non-olfactory GPCRs (Homo sapiens, UniProt P51582), sequence (P51582 whole entry): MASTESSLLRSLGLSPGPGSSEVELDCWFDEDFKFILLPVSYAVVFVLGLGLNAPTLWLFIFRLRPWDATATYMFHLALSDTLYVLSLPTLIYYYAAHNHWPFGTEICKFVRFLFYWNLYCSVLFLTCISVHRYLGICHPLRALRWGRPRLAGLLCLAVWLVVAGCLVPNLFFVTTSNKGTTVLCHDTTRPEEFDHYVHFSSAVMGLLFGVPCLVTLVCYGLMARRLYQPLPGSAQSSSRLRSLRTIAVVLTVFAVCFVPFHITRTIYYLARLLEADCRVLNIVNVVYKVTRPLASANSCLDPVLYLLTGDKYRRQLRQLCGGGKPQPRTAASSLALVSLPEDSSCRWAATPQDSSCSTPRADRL
hCB1, sequence (P21554 whole entry): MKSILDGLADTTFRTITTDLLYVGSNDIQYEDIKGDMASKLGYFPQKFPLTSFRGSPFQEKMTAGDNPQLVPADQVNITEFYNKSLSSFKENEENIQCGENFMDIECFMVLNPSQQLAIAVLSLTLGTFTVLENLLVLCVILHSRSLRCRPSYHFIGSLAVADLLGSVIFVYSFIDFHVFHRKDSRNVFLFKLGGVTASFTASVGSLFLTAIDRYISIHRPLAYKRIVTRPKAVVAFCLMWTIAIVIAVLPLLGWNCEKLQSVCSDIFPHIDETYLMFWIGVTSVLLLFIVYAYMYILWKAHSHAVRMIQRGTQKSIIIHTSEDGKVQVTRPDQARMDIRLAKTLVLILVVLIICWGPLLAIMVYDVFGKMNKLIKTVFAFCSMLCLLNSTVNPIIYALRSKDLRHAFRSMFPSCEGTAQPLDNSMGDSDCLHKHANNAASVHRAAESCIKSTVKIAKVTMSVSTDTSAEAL
hCB2, sequence (P34972 whole entry): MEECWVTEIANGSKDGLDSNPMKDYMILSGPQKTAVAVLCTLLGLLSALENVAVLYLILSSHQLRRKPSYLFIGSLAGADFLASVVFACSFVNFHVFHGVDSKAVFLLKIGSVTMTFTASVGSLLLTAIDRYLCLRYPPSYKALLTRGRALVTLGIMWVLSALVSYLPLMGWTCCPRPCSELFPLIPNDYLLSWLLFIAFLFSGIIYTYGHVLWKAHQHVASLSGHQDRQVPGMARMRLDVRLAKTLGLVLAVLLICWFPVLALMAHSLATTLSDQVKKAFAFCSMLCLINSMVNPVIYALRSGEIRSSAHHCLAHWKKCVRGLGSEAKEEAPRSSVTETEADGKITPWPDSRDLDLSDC
Description for hCB2: The hCB1/2 CHO-K1 cells (ATCC: CCL-61) are suspended in HBSS buffer (Invitrogen) complemented with 20 mM HEPES (pH 7.4), then distributed in microplates at a density of 5.103 cells/well in the presence of either of the following: HBSS (basal control), the reference agonist (stimulated control) or the test compounds. […] Following 30 min incubation at 37 °C, the cells are lysed, and the fluorescence acceptor (D2-labeled cAMP) and fluorescence donor (anti-cAMP antibody labeled with europium cryptate) are added. […] Each measurement was done in triplicate.

As to `Cc1cc(C(=O)NC(C)(c2ccco2)c2ccco2)nn1-c1cccc(C(F)(F)F)c1` [‘4936], the “Fold of Basal RLU” value in series [1] is 0.9 fold and 1.5 fold and 1.3 fold; in series [2] it was 1.2 and 1.9 and 1.3; in series [3], 0.7 and 0.4 and 0.6; in series [4], 0.3 and 0.2; in series [5], 1.8 and 2.2 and 1.2 and 1.7; in series [6], 0.7 and 0.6 and 0.8. Moreover, the “Fold of Basal RLU” value in [7] is 1.6 and 1.3; in series [8] it was 0.8 fold and 0.7 fold and 0.6 fold; in [9] it was 0.6 fold and 0.7 fold and 0.5 fold; in series [10] it was 1.4 fold and 1.8 fold and 1.7 fold; in series [11], 0.9 and 0.8 and 1; in [12], 2.2 and 1.8 and 1.2 and 1.3. Moreover, the “Fold of Basal RLU” value in [13] was 1.4 fold and 1.5 fold and 1.7 fold; in series [14], 0.8 and 1.3; in series [15], 1 and 1.2 and 1.1 and 0.6; in [16] it was 1 and 0.5 and 0.6; in [17], 0.9 and 1.5; in series [18] it was 1.3 and 1 and 0.7 and 1.4. In addition, the “Fold of Basal RLU” value in series [19] was 0.9 and 0.7 and 0.5.

Take `COC(=O)[C@@](C)(NC(=O)c1cc(C)n(-c2cccc(C(F)(F)F)c2)n1)c1cccs1` [‘1350]: the “Dose response, individual animals (FigS11a)” value in the series on mice (Dose 0.05 mg/kg) is 70.2102 and 59.9464 and 116.769 and 106.654 and 53.8477; in the series with mice (Dose 0.1 mg/kg) it was 178.501 and 115.43 and 147.263 and 156.486; in the series with mice (Dose 0.2 mg/kg), 166.452 and 178.501. Moreover, in the series with mice (i.p., 30 min after injection), the “lowest dose with significantly increased latency, Hargreaves” value came to 0.1 mg/kg. The “Mean % of bound compound” value in [20] worked out at 94%. Moreover, the Stability in [20] (5 h) is recorded as 11%. For the same compound, the “Fold of Basal RLU” value in [21] is 1.8 fold and 1.6 fold and 2.9 fold; in series [22] it was 0.6 and 0.7 and 0.8; in [23], 0.7 and 0.6; in series [24], 1.6 fold and 1.3 fold and 1.4 fold; in [25], 0.7 and 0.9; in series [26], 1.3 and 0.9 and 1. The “Fold of Basal RLU” value was 0.9 and 1 and 1.1 in [27]; 0.6 and 0.7 and 0.9 and 0.5 in [28]; 0.7 in series [29].

Usually EC50 stands for the midpoint of the concentration-response curve. For orientation: Emax means the maximal effect, on the per cent scale that the assay sets. As for `COC(=O)C(C)(NC(=O)c1cc(C)n(-c2cccc(C(F)(F)F)c2)n1)c1cccs1` (stereo not drawn) [‘4042], on hCB1, the “DiscoverX ß-arrestin recruitment pEC50” value was 8.7 [8.3 – 9.6]. Further, the “response at log[M] -5 (FigS4f)” value on hCB1 (log[M] = -5, individual replicates) is 61.1792 and 63.739. The “response at log[M] -5.47712 (FigS4f)” value at hCB1 (log[M] = -5.47712, individual replicates) is 59.4535 and 60.8053. For the same compound, at hCB1 (log[M] = -5.95424, individual replicates), the “response at log[M] -5.95424 (FigS4f)” value is 62.531 and 63.2501. In addition, the “response at log[M] -6.43136 (FigS4f)” value at hCB1 (log[M] = -6.43136, individual replicates) is 63.3939 and 54.9092. Moreover, the “response at log[M] -6.90849 (FigS4f)” value on hCB1 (log[M] = -6.90849, individual replicates) was 60.9779 and 60. The “response at log[M] -7.38561 (FigS4f)” value at hCB1 (log[M] = -7.38561, individual replicates) is 55.1393 and 55.8296. Besides, on hCB1 (log[M] = -7.86273, individual replicates), the “response at log[M] -7.86273 (FigS4f)” value was 45.8781 and 43.2321. The “response at log[M] -8.33985 (FigS4f)” value at hCB1 (log[M] = -8.33985, individual replicates) was 34.3448 and 36.6457. Moreover, the “response at log[M] -8.81697 (FigS4f)” value on hCB1 (log[M] = -8.81697, individual replicates) was 21.5459 and 25.2274. At hCB1 (log[M] = -9.29409, individual replicates), the “response at log[M] -9.29409 (FigS4f)” value was 9.61 and 9.437. Moreover, the half-maximal effective concentration (EC50) on hCB1 (read-out: DiscoverX ß-arrestin recruitment EC50) was 2.3 nM; on hCB2 (hCB2) it was 0.011 nM. For the same compound, the Emax at hCB1 (read-out: DiscoverX ß-arrestin recruitment Emax) is 71%; on hCB2 (CHO-K1, hCB2), 72%. Besides, the “functional response, concentration-response point (FigS7d)” value is 9.2 and 15.9 and 20.5 on hCB2 (Concentration [M] 1e-12); 54.5 and 33.7 and 39.7 on hCB2 (Concentration [M] 1e-11); 72.4 and 68.7 and 74.5 at hCB2 (Concentration [M] 1e-10); 87.6 and 76.3 and 78.1 on hCB2 (Concentration [M] 1e-9); 74.4 and 84.9 and 81.3 on hCB2 (Concentration [M] 1e-8); 79.5 and 79.9 and 79.2 at hCB2 (Concentration [M] 1e-7). Further, the “functional response, concentration-response point (FigS7d)” value on hCB2 (Concentration [M] 1e-6) was 80.1 and 76.3 and 83.8. The “Cerep cAMP pEC50” value on hCB2 (hCB2) is 10.95 [10.7 – 11.6].
